Assay results taken from ChEMBL document CHEMBL5356993, “Novel pyrazolo[3,4-d]pyrimidine derivatives: design, synthesis, anticancer evaluation, VEGFR-2 inhibition, and antiangiogenic activity” (RSC Med Chem, 2023).

Legend:
MDA-MB-468 [1] = experiment: Induction of cell cycle arrest in human MDA-MB-468 cells assessed as accumulation of cells at S phase at IC50 incubated for 24 hrs by RNase/PI staining based flow cytometry (reference value: 24.85 %); assay type: functional
HUVEC [2] = experiment: Antiangiogenic activity against HUVEC cells assessed as decrease in healing rate at IC50 incubated for 72 hrs by wound healing assay relative to control; assay type: functional, Homo sapiens; design: scale not given: the % may be the effect or the level left
MDA-MB-468 [3] = experiment: Induction of cell cycle arrest in human MDA-MB-468 cells assessed as decrease in cell population at G0 to G1 phase at IC50 incubated for 24 hrs by RNase/PI staining based flow cytometry relative to control; assay type: functional; design: scale not given: the % may be the effect or the level left
MDA-MB-468 [4] = experiment: Induction of apoptosis in human MDA-MB-468 cells assessed as fold increase in caspase-3 level incubated for 2 hrs by ELISA relative to control; assay type: functional
MDA-MB-468 [5] = experiment: Induction of apoptosis in human MDA-MB-468 cells assessed as late apoptotic cells at IC50 incubated for 24 hrs by Annexin V/PI staining based flow cytometry (reference value: 0.17 %); assay type: functional
MDA-MB-468 [6] = experiment: Induction of cell cycle arrest in human MDA-MB-468 cells assessed as accumulation of cells at G0 to G1 phase at IC50 incubated for 24 hrs by RNase/PI staining based flow cytometry (reference value: 59.02 %); assay type: functional
HUVEC [7] = experiment: Antiangiogenic activity against HUVEC cells assessed as wound closure at IC50 incubated for 72 hrs by wound healing assay (reference value: 98.518 %); assay type: functional, Homo sapiens
MDA-MB-468 [8] = experiment: Induction of apoptosis in human MDA-MB-468 cells assessed as necrotic cells at IC50 incubated for 24 hrs by Annexin V/PI staining based flow cytometry (reference value: 1.59 %); assay type: functional
MDA-MB-468 [9] = experiment: Induction of apoptosis in human MDA-MB-468 cells assessed as fold increase in total apoptotic cells at IC50 incubated for 24 hrs by Annexin V/PI staining based flow cytometry relative to control; assay type: functional
MDA-MB-468 [10] = experiment: Induction of cell cycle arrest in human MDA-MB-468 cells assessed as fold increase in cell population at S phase at IC50 incubated for 24 hrs by RNase/PI staining based flow cytometry relative to control; assay type: functional
MDA-MB-468 [11] = experiment: Induction of cell cycle arrest in human MDA-MB-468 cells assessed as decrease in cell population at G2/M phase at IC50 incubated for 24 hrs by RNase/PI staining based flow cytometry relative to control; assay type: functional; design: scale not given: the % may be the effect or the level left
MDA-MB-468 [12] = experiment: Induction of apoptosis in human MDA-MB-468 cells assessed as early apoptotic cells at IC50 incubated for 24 hrs by Annexin V/PI staining based flow cytometry (reference value: 0.52 %); assay type: functional

Cc1nc2c(cnn2-c2ccccc2)c(=O)n1-c1ccc(NC(=O)c2ccc(F)cc2)cc1 was tested, and the Activity (MDA-MB-468 [1]) was 38.02%, the Activity (HUVEC [2]) was 23% and the Activity (MDA-MB-468 [3]) was 10.43%. The “fold change (FC)” value (MDA-MB-468 [4]) was 7.32, the Activity (MDA-MB-468 [5]) was 22.49% and the Activity (MDA-MB-468 [6]) was 52.86%. For the same compound, the Activity (HUVEC [7]) was 75.555%, the Activity (MDA-MB-468 [8]) was 4.94% and the “fold change (FC)” value (MDA-MB-468 [9]) was 18.98. For the same compound, the “fold change (FC)” value (MDA-MB-468 [10]) was 1.53, the Activity (MDA-MB-468 [11]) was 43.46% and the Activity (MDA-MB-468 [12]) was 15.85%.
